# Assay results published in US20090156477A1, “Compositions and Methods for Regulating Inflammatory Responses” (Massachusetts Institute of Technology, priority 2005, published 2009).
# B1: FGF7: Recombinant human FGF7 from Sigma (protein, UniProt P21781 32-194, looked up)
# Fibroblast growth factor 7: CNDMTPEQMATNVNCSSPERHTRSYDYMEGGDIRVRRLFCRTQWYLRIDKRGKVKGTQEMKNNYNIMEIRTVAVGIVAIKGVESEFYLAMNKEGKLYAKKECNEDCNFKELILENHYNTYASAKWTHNGGEMFVALNQKGIPVRGKKTKKEQKTAHFLPMAIT
# Experiments:
# [1] = system: syndecan-1; assay: Immunohistochemistry for syndecan-1 in Caco-2 cells; assay type: cell-based, human; details: for syndecan-1 localization, one hour after treatment: 1 hour; for syndecan-1 distribution after 24 hours: compared to FGF1 treated cells
# Experimental: Caco-2 cells were grown to just prior to confluency on collagen IV coated glass slides. Cells were treated with PBS, FGF1, FGF2 and FGF7, and were incubated at 37° C. in a 5% CO2 humidified incubator for 1 hour, 4 hours, 24 hours or 48 hours, as noted. Cells were washed with PBS, fixed with 3.7% formalin for 10 minutes and washed again with PBS. Cells were treated with 0.1% Triton x-100 for 5 minutes to extract lipids. Cells were washed with PBS and preincubated with PBS supplemented with 1% bovine serum albumin. Primary antibodies were added for 4 hours at room temperature, and cells were washed with PBS. Primary antibodies used were as follows: rabbit anti-human ZO-1 (1:160; Zymed Laboratories, San Francisco, Calif.); mouse anti-human syndecan-1 (1:300; Santa Cruz Biotechnology); goat anti-human Fz-1 (1:125; Santa Cruz Biotechnology); rabbit anti-human caveolin-1 (1:250; Santa Cruz Biotechnology); goat anti-human glypican-1 (1:100; Santa Cruz Biotechnology); mouse anti-human E-cadherin (1:250; Zymed Laboratories); rabbit anti-human β-catenin (1:125; Cell Signaling Technology, Beverly, Mass.); and rabbit anti-human phospho-β-catenin (Ser33/37/Thr41; 1:125; Cell Signaling Technology, Beverly, Mass.).
# Cells were then treated with secondary antibodies, Texas Red-labeled phalloidin (Molecular Probes, Eugene, Oreg.) or FLAER-FL1 (1:400; Protox Biotech, Victoria, BC, Canada) as appropriate for 1 hour in the dark at room temperature. Secondary antibodies used were as follows: FITC-labeled chicken anti-rabbit (for ZO-1; 1:100; Molecular Probes, Eugene, Oreg.); Texas Red-labeled goat-anti mouse (for syndecan-1; 1:400; Molecular Probes); FITC-labeled donkey anti-mouse (for syndecan-1; 1:400; Molecular Probes, Eugene, Oreg.); FITC-labeled rabbit anti-mouse (for syndecan-1 and E-cadherin; 1:500; Molecular Probes, Eugene, Oreg.); Texas Red-labeled rabbit anti-goat (for Fz-1; 1:200; Jackson ImmunoResearch Laboratories, West Grove, Pa.); Texas Red-labeled goat anti-rabbit (for caveolin-1, β-catenin and phospho-β-catenin; 1:500; Molecular Probes); and Texas Red-labeled donkey anti-goat (for glypican-1; 1:80; Research Diagnostics, Flanders, N.J.).
# Cells, except those stained with phalloidin, were washed with PBS and stained with diamidino-2-phenylindole (DAPI) for 5 minutes at room temperature (Molecular Probes). Controls of no antibody, primary antibody only, and secondary antibody only were performed. Cells were examined by confocal microscopy (ZO-1 and phalloidin only), or by fluorescence microscopy. A Nikon HB10101AF fluorescence microscope was used and images were captured at room temperature using a Hitachi HVC20 camera and Scion image acquisition software. Images were processed using Adobe Photoshop 7.0 and Adobe Illustrator 10.0.
# [2] = system: Caco-2 cells; assay: Transepithelial resistance (TER) of Caco-2 monolayers; assay type: cell-based, human; details: for inhibited TER increases: 100 ng/ml ligand, three days (72 hours) after addition, percent reduction in TER compared to PBS treated cells; for time after treatment at which reductions in TER were evident: Caco-2 monolayers, TER followed over 48 hours; for reduced resistance on day 5: ligand added on day 0 and day 2, compared to untreated cells
# Experimental: Caco-2 cells were grown close to confluence, and T84 cells were grown to confluence. The apical chambers of transwell plates with 6.5 mm diameter and 3 μm pore size filters were pretreated with 50 μl of 45 μg/ml collagen IV in 60% ethanol 24 hours prior to plating and incubated overnight at room temperature. After reaching confluence, cells were washed with 20 ml PBS and treated with 3.5 ml trypsin-EDTA per 175 cm^2 flask for 20-60 min at 37° C. until cells detached. Cells were resuspended in 16.5 ml media appropriate to the cell type. Each apical chamber was supplemented with 82 μl cell solution. The basolateral chamber was filled with 1 ml propagation media. Filters were fed with new media every two days over the course of experiments.
# Caco-2 and T84 cells were allowed to grow on transwells to form monolayers. Monolayer formation was examined every other day by light microscopy as well as by transepithelial resistance (TER) measurements using an EVOM ohmmeter (World Precision Instruments, Sarasota, Fla.). After monolayer formation, cells were treated with 100 ng/ml FGF1, 100 ng/ml FGF2, 100 ng/ml FGF7 or an equivalent volume (10 μl) of PBS. TER measurements were made either after 72 hours or at each of the 30 minutes, 1 hour, 2 hours, 4 hours, 9 hours, 24 hours and 48 hours timepoints. To determine the effects of multiple additions of ligand, FGFs or PBS were added initially and again after 2 days, and TER measurements were made after 0, 2 and 5 days.
# To probe the mechanism by which various FGFs induced cell mediated effects, various media treatments were employed. Ammonium tetrathiomolybdate (TM) was added 24 hours prior to the addition of ligands to yield a final concentration of 200 μM, sufficient to prevent the release of FGF1 [3]. Similarly, sodium chlorate, which reduces cell HSPGs and the sulfation of associated HSGAGs, was added 24 hours prior to the addition of ligands to yield a final concentration of 50 mM [33,34]. Antibodies and kinase inhibitors were added immediately prior to ligands. Antibodies to FGF1, FGFR1 and FGFR3 were added at a 1:100 dilution. Kinase inhibitors were added to yield final concentrations of 50 μM LY294002, 20 μM PD98059, 1 μM SB203580. All experiments were performed in triplicate.
# Caco-2 cells were grown to just prior to confluency. The apical chambers of transwell plates with 6.5 mm diameter and 3 μm pore size filters were pretreated with 50 μl of 45 μg/ml mouse recombinant collagen IV (BD Biosciences, Bedford, Mass.) in 60% ethanol 24 hours prior to plating. Plates were incubated overnight at room temperature. Just prior to confluency, cells were washed with 20 ml phosphate buffered saline (PBS) and treated with 3.5 ml trypsin-EDTA per 175 cm^2 flask for 20-60 min at 37° C., until cells detached. Cells were resuspended in 16.5 ml media appropriate to the cell type. Each apical chamber was supplemented with 82 μl cell solution. The basolateral chamber was filled with 1 ml propagation media. Filters were fed with new media every two days over the course of experiments.
# Caco-2 cells were allowed to grow on transwells to form monolayers. Monolayer formation was examined every other day by light microscopy as well as by TER measurements using an EVOM ohmmeter (World Precision Instruments, Sarasota, Fla.). After monolayer formation, cells were treated with 100 ng/ml recombinant human FGF1 (Amgen, Thousand Oaks, Calif.), 100 ng/ml recombinant human FGF2 [1], 100 ng/ml recombinant human FGF7 (Sigma, St. Louis, Mo.), or an equivalent volume (10 μl) of PBS. TER measurements were made after each of 30 minutes, 1 hour, 2 hours, 4 hours, 9 hours, 24 hours and 48 hours.
# To probe the mechanism by which various FGFs induced cellular mediated effects, various media treatments were employed. TM was added 24 hours prior to the addition of ligands to yield a final concentration of 200 μM, sufficient to prevent the release of FGF1 [3]. […]
molecule,measurement,setting,value
FGF1: Recombinant human FGF1 from Amgen,"syndecan-1 localization, one hour after treatment",[1],seen to a lesser amount
same,inhibited TER increases,[2]; Caco-2 cells,35.1±12.3%
same,reduced TER at 48 hours,"[2]; Caco-2 cells, 100 ng/ml, 48 hours",45.1±5.2%
same,effect of added agent on FGF-induced reduction in TER,"[2]; Caco-2 cells, agent given before or with 100 ng/ml FGFs (TM 200 μM, sodium chlorate 50 mM, LY294002 50 μM, PMA 100 ng/ml, antibodies 1:100)",restored the ability of FGF2 and FGF7 to reduce TER
same,reduction of TER in TM treated cells,"[2]; Caco-2 monolayers pretreated with 200 μM TM, all time points beginning at 4 hours",still elicited significant reductions in TER
same,reduction of TER with the addition of heparin,"[2]; Caco-2 monolayers pretreated with 50 mM sodium chlorate, heparin 500 ng/ml with ligands, vs PBS",reduced TER compared to PBS
same,time after treatment at which reductions in TER were evident,[2]; 100 ng/ml,2 h
"FGF2: Recombinant human FGF2, produced as described","syndecan-1 localization, one hour after treatment",[1],primarily localized around the nucleus
same,syndecan-1 distribution after 24 hours,[1],moderately enhanced cytoplasmic and membrane-associated distribution of syndecan-1
same,inhibited TER increases,[2]; Caco-2 cells,67.2±25.8%
same,reduced resistance on day 5,[2]; Caco-2 cells,43.6±11.1%
same,time after treatment at which reductions in TER were evident,[2]; 100 ng/ml,4 h
B1,"syndecan-1 localization, one hour after treatment",[1],primarily localized around the nucleus
same,syndecan-1 distribution after 24 hours,[1],moderately enhanced cytoplasmic and membrane-associated distribution of syndecan-1
same,inhibited TER increases,[2]; Caco-2 cells,61.4±17.3%
same,reduced resistance on day 5,[2]; Caco-2 cells,44.4±8.7%
same,time after treatment at which reductions in TER were evident,[2]; 100 ng/ml,4 h
